Source: ChEMBL document CHEMBL1201862, “PubChem BioAssay data set” (2004)
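Cultured in 96-well plates, cells were exposed to test compound for 48 hours across five concentrations. The concentration for 50% growth inhibition is given as GI50.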 Calls of active or inactive are those of the source. Cut-off read from the data, not from the text of the source: active = GI50 up to about 1.1 µM and inactive = higher.

Columns and labels:
Test in all cases: DTP human tumour cell line panel, 48 h
786-0 = system: 786-0
A498 = system: A498
A549 = system: A549
ACHN = system: ACHN
CAKI-1 = system: CAKI-1
CCRF-CEM = system: CCRF-CEM
COLO 205 = system: COLO 205
DLD-1 = system: DLD-1
DMS-114 = system: DMS-114
EKVX = system: EKVX
HCC 2998 = system: HCC 2998
HCT-116 = system: HCT-116
HCT-15 = system: HCT-15
HOP-18 = system: HOP-18
HOP-62 = system: HOP-62
HOP-92 = system: HOP-92
HT-29 = system: HT-29
IGROV-1 = system: IGROV-1
K562 = system: K562
KM12 = system: KM12
LOX IMVI = system: LOX IMVI
LXFL 529 = system: LXFL 529
MOLT-4 = system: MOLT-4
Malme-3M = system: Malme-3M
NCI-H226 = system: NCI-H226
NCI-H23 = system: NCI-H23
NCI-H460 = system: NCI-H460
NCI-H522 = system: NCI-H522
OVCAR-3 = system: OVCAR-3
OVCAR-4 = system: OVCAR-4
OVCAR-5 = system: OVCAR-5
OVCAR-8 = system: OVCAR-8
RPMI-8226 = system: RPMI-8226
RXF 393 = system: RXF 393
SF-268 = system: SF-268
SF-295 = system: SF-295
SF-539 = system: SF-539
SK-MEL-28 = system: SK-MEL-28
SK-MEL-2 = system: SK-MEL-2
SK-OV-3 = system: SK-OV-3
SN12C = system: SN12C
SNB-19 = system: SNB-19
SNB-78 = system: SNB-78
SR = system: SR
SW-620 = system: SW-620
U-251 = system: U-251
UACC-257 = system: UACC-257
UACC-62 = system: UACC-62
UO-31 = system: UO-31
DMS-273 = system: DMS-273
HL-60 = system: HL-60
KM-20L2 = system: KM-20L2
M14 = system: M14
SK-MEL-5 = system: SK-MEL-5
SNB-75 = system: SNB-75
M19-MEL = system: M19-MEL
TK-10 = system: TK-10

`COc1ccc(/C=N/N=C(\N)NO)c(OC)c1C` was tested, and the GI50 (786-0) was 16.1 µM (inactive), the GI50 (A498) was 25.4 µM (inactive) and the GI50 (A549) was 10.9 µM (inactive). The GI50 (ACHN) was 11.1 µM (inactive), the GI50 (CAKI-1) was 8.49 µM (inactive) and the GI50 (CCRF-CEM) was 29.9 µM (inactive). For the same compound, the GI50 (COLO 205) was 10.2 µM (inactive), the GI50 (DLD-1) was 29 µM (inactive) and the GI50 (DMS-114) was 13.2 µM (inactive). The GI50 (EKVX) was 4.56 µM (inactive), the GI50 (HCC 2998) was 7.08 µM (inactive) and the GI50 (HCT-116) was 24.5 µM (inactive). For the same compound, the GI50 (HCT-15) was 9.14 µM, the GI50 (HOP-18) was 5.24 µM (inactive) and the GI50 (HOP-62) was 7.19 µM (inactive). The GI50 (HOP-92) was 19.8 µM (inactive), the GI50 (HT-29) was 12.9 µM (inactive) and the GI50 (IGROV-1) was 56.4 µM (inactive). The GI50 (K562) was 10.1 µM (inactive), the GI50 (KM12) was 29.2 µM (inactive) and the GI50 (LOX IMVI) was 4.81 µM (inactive). For the same compound, the GI50 (LXFL 529) was 3.62 µM (inactive), the GI50 (MOLT-4) was 22.2 µM (inactive) and the GI50 (Malme-3M) was 16.3 µM (inactive). For the same compound, the GI50 (NCI-H226) was 15.2 µM (inactive), the GI50 (NCI-H23) was 19.5 µM (inactive) and the GI50 (NCI-H460) was 15.6 µM (inactive). For the same compound, the GI50 (NCI-H522) was 12.5 µM (inactive), the GI50 (OVCAR-3) was 7.96 µM (inactive) and the GI50 (OVCAR-4) was 22.9 µM (inactive). For the same compound, the GI50 (OVCAR-5) was 2.47 µM (inactive), the GI50 (OVCAR-8) was 20.2 µM (inactive) and the GI50 (RPMI-8226) was 23.7 µM (inactive). For the same compound, the GI50 (RXF 393) was 12.2 µM (inactive), the GI50 (SF-268) was 15.4 µM (inactive) and the GI50 (SF-295) was 21.1 µM (inactive). The GI50 (SF-539) was 19.2 µM (inactive), the GI50 (SK-MEL-28) was 5.57 µM (inactive) and the GI50 (SK-MEL-2) was 22.3 µM (inactive). For the same compound, the GI50 (SK-OV-3) was 34.4 µM (inactive), the GI50 (SN12C) was 26 µM (inactive) and the GI50 (SNB-19) was 65.2 µM (inactive). For the same compound, the GI50 (SNB-78) was 20.5 µM (inactive), the GI50 (SR) was 28.2 µM (inactive) and the GI50 (SW-620) was 22.8 µM (inactive). The GI50 (U-251) was 45.1 µM (inactive), the GI50 (UACC-257) was 22.2 µM (inactive) and the GI50 (UACC-62) was 16.3 µM (inactive). The GI50 (UO-31) was 10.2 µM (inactive).

With `CCC1CC(C)=CCN1S(=O)(=O)c1ccc(C)cc1` (stereo unspecified) the GI50 (786-0) was 33.5 µM (inactive), the GI50 (A498) was 42.6 µM (inactive) and the GI50 (A549) was 21.5 µM (inactive). For the same compound, the GI50 (ACHN) was 37 µM (inactive), the GI50 (CAKI-1) was 6.9 µM (inactive) and the GI50 (CCRF-CEM) was 4.9 µM (inactive). For the same compound, the GI50 (COLO 205) was 16.5 µM (inactive), the GI50 (DMS-114) was 15.9 µM (inactive) and the GI50 (DMS-273) was 22 µM (inactive). For the same compound, the GI50 (EKVX) was 31.8 µM (inactive), the GI50 (HCT-116) was 9.82 µM (inactive) and the GI50 (HCT-15) was 6.52 µM. For the same compound, the GI50 (HL-60) was 3.61 µM (inactive), the GI50 (HOP-62) was 21.3 µM (inactive) and the GI50 (HT-29) was 20 µM (inactive). For the same compound, the GI50 (K562) was 7.5 µM (inactive), the GI50 (KM-20L2) was 19.2 µM (inactive) and the GI50 (KM12) was 23.4 µM (inactive). The GI50 (LOX IMVI) was 15.9 µM (inactive), the GI50 (LXFL 529) was 12.9 µM (inactive) and the GI50 (M14) was 22 µM (inactive). For the same compound, the GI50 (MOLT-4) was 28.2 µM (inactive), the GI50 (Malme-3M) was 17.3 µM (inactive) and the GI50 (NCI-H226) was 28.2 µM (inactive). The GI50 (NCI-H460) was 21.1 µM (inactive), the GI50 (NCI-H522) was 16.6 µM (inactive) and the GI50 (OVCAR-3) was 17.4 µM (inactive). For the same compound, the GI50 (OVCAR-4) was 39 µM (inactive), the GI50 (OVCAR-5) was 28 µM (inactive) and the GI50 (OVCAR-8) was 36.5 µM (inactive). For the same compound, the GI50 (RPMI-8226) was 3.89 µM (inactive), the GI50 (SF-268) was 15.9 µM (inactive) and the GI50 (SF-295) was 32.7 µM (inactive). The GI50 (SF-539) was 14.5 µM (inactive), the GI50 (SK-MEL-2) was 11 µM (inactive) and the GI50 (SK-MEL-5) was 13.9 µM (inactive). For the same compound, the GI50 (SK-OV-3) was 24.5 µM (inactive), the GI50 (SN12C) was 9.57 µM (inactive) and the GI50 (SNB-19) was 28.8 µM (inactive). For the same compound, the GI50 (SNB-75) was 13.9 µM (inactive), the GI50 (SR) was 5.66 µM (inactive) and the GI50 (SW-620) was > 10 µM (inactive). The GI50 (UACC-257) was 25.9 µM (inactive), the GI50 (UACC-62) was 15.5 µM (inactive) and the GI50 (UO-31) was 11.3 µM (inactive).

`CSc1nc2c(c(O)c(C)c(=O)n2C2OCC(OC(C)=O)C(OC(C)=O)C2OC(C)=O)c(=O)n1C` (stereo unspecified) was tested, and the GI50 (786-0) was > 100 µM (inactive), the GI50 (A498) was > 100 µM (inactive) and the GI50 (A549) was > 100 µM (inactive). For the same compound, the GI50 (ACHN) was > 100 µM (inactive), the GI50 (CAKI-1) was > 100 µM (inactive) and the GI50 (CCRF-CEM) was > 100 µM (inactive). For the same compound, the GI50 (COLO 205) was > 100 µM (inactive), the GI50 (DLD-1) was > 100 µM (inactive) and the GI50 (DMS-114) was > 100 µM (inactive). For the same compound, the GI50 (HCT-116) was > 100 µM (inactive), the GI50 (HCT-15) was over 100 µM and the GI50 (HL-60) was > 100 µM (inactive). For the same compound, the GI50 (HOP-62) was > 100 µM (inactive), the GI50 (HOP-92) was > 100 µM (inactive) and the GI50 (HT-29) was > 100 µM (inactive). For the same compound, the GI50 (IGROV-1) was > 100 µM (inactive), the GI50 (K562) was > 100 µM (inactive) and the GI50 (KM-20L2) was > 100 µM (inactive). The GI50 (KM12) was > 100 µM (inactive), the GI50 (LOX IMVI) was > 100 µM (inactive) and the GI50 (LXFL 529) was > 100 µM (inactive). The GI50 (M14) was > 100 µM (inactive), the GI50 (M19-MEL) was > 100 µM (inactive) and the GI50 (MOLT-4) was > 100 µM (inactive). The GI50 (Malme-3M) was > 100 µM (inactive), the GI50 (NCI-H226) was > 100 µM (inactive) and the GI50 (NCI-H23) was > 100 µM (inactive). The GI50 (NCI-H460) was > 100 µM (inactive), the GI50 (NCI-H522) was > 100 µM (inactive) and the GI50 (OVCAR-3) was > 100 µM (inactive). The GI50 (OVCAR-4) was > 100 µM (inactive), the GI50 (OVCAR-5) was > 100 µM (inactive) and the GI50 (OVCAR-8) was > 100 µM (inactive). The GI50 (RPMI-8226) was > 100 µM (inactive), the GI50 (SF-268) was > 100 µM (inactive) and the GI50 (SF-295) was > 100 µM (inactive). For the same compound, the GI50 (SF-539) was > 100 µM (inactive), the GI50 (SK-MEL-28) was > 100 µM (inactive) and the GI50 (SK-MEL-2) was > 100 µM (inactive). The GI50 (SK-MEL-5) was > 100 µM (inactive), the GI50 (SK-OV-3) was > 100 µM (inactive) and the GI50 (SN12C) was > 100 µM (inactive). The GI50 (SNB-19) was > 100 µM (inactive), the GI50 (SNB-75) was > 100 µM (inactive) and the GI50 (SNB-78) was > 100 µM (inactive). The GI50 (SR) was > 100 µM (inactive), the GI50 (SW-620) was > 100 µM (inactive) and the GI50 (TK-10) was > 100 µM (inactive). The GI50 (U-251) was > 100 µM (inactive), the GI50 (UACC-257) was > 100 µM (inactive) and the GI50 (UACC-62) was > 100 µM (inactive). For the same compound, the GI50 (UO-31) was > 100 µM (inactive).
